Here are results for four molecules from patent publication US20060217405A1, “Interstitial cystitis treatment” (Indevus Pharmaceuticals, Inc., priority 2005, published 2006).

Data set [1] deals with interstitial cystitis patients. Conditions: bladder instillation; cited from earlier work.
A further data set deals with animals. Conditions: animal studies; cited from earlier work.
In another data set the test system is bladder afferent nerves. Briefly: Intravesical trospium and carbachol experiments. Format: in vivo. Conditions: for direct effect on interstitial cystitis: trospium at low dose. From the text: The action of trospium is unique because it has selective activity on the bladder urothelium and bladder afferent nerves. The local trospium bladder effect is on the afferent nerve rather than bladder smooth muscle. The effect of intravesical administered trospium was not blocked by pre treatment of capsaicin or resiniferatoxin. This indicates the afferent nerve effect is that of A-delta and not C-fibers.

Another data set has as its system female SD rats. Kind of data set: Cystometrogram (CMG) in anesthetized rats after intravesical instillation. In kind it is in vivo, rat. The note with it: 0.5 mcg/ml, approx. 5 ml intravesical, 10-30 minutes, urethane anesthesia. As to the method:
Baseline cystometrogram (CMG) is measured in a group of 6 female SD rats (250 grams). The rats are anesthetized utilizing urethane anesthesia at a rate of 1.2 g/kg. Trospium chloride at a concentration of 0.5 mcg/ml is administered by intravesical instillation. Approximately, 5 ml are instilled. The trospium solution is maintained in the rat bladder for a period of 10-30 minutes. At the end of that period the solution is expelled and the CMG measured.

In a further data set the test system is human subject. Briefly: Intravesical instillation of trospium chloride in human female subjects. The note with it: 0.5 mcg/ml twice daily intravesical. Format: in vivo. On the procedure:
A human subject, and weighing approximately 70 kg, presents with a sense of urgency and frequency to urinate, although they are not incontinent. The subject experiences pain and other pelvic discomfort, however, while attempting to urinate. Trospium chloride at a concentration of 0.5 mcg/ml is administered twice daily by intravesical instillation to the subject for a total dose of 2.0 mg trospium chloride per day. The dosing regimen is continued for six (6) weeks.
A human subject, and weighing approximately 60 kg, presents with incontinence. Trospium chloride at a concentration of 0.5 mcg/ml is administered twice daily by intravesical instillation to the subject for a total dose of 1.6 mg trospium chloride per day. The dosing regimen is continued for eight (8) months.

The test system of the next data set is patients. Briefly: Intravesicular instillation of trospium chloride in patients. In kind it is in vivo, human. From the text:
Trospium chloride is a quaternary ammonium compound that concentrates in the urine primarily unchanged and is believed to have local antispasmodic activity. […] Therefore the use of trospium, especially by intravesicular instillation, is a novel treatment for interstitial cystitis with the very low potential for systemic side effects.

The conditions of data set [2]: cited from earlier work.
The test system of data set [3] is interstitial cystitis patients. The note with it: cited from earlier work.

As to `C[S+](C)[O-]` [DMSO, dimethyl sulfoxide], in data set [1], the “average duration of significant pain relief” value was “about 10 months”; the “duration of garlic-like taste and odor on the breath and skin after treatment” value is reported as “up to 72 hours”; the “patients experiencing significant pain relief” value is reported as “About 50%”. For the same molecule, the “side effect of long-term treatment” value with animals is given as “cataracts”.

On to `C[N+](C)(C)CCOC(N)=O` [carbachol], for which the “direct effect on interstitial cystitis” value in the data set on bladder afferent nerves (intravesical) was “decreased”.

On to `O=C(O[C@H]1C[C@H]2CC[C@@H](C1)[N+]21CCCC1)C(O)(c1ccccc1)c1ccccc1` [trospium chloride], for which, in the data set on bladder afferent nerves (intravesical), the “effect of intravesical trospium after pre treatment of capsaicin or resiniferatoxin” value is “not blocked” and the “direct effect on interstitial cystitis” value is recorded as “no direct effect”. Further, the “effect on the inhibitory effect of carbachol” value in the data set with bladder afferent nerves (low dose of trospium) was “completely blocked”. In the data set with female SD rats, the “acetic-acid induced bladder overactivity” value is given as “significantly suppressed” and the “bladder contractions during voiding” value is on record as “without affecting”. The “urge, frequency and incontinence episodes” value in the data set on human subject (1.6 mg per day, eight months, incontinence) is given as “significant reduction”. In addition, in the data set with human subject (2.0 mg per day, six weeks, urgency, frequency, pain), the “pain when attempting to urinate” value was “no longer experiences pain”. In the data set with patients, the “absorption into the systemic circulation” value is “little or no absorption”. In data set [2] (in vivo), the metabolism result was “minimally metabolized” and the protein binding entry is “not highly protein-bound”. Besides, the plasma half-life result in data set [2] (oral 20 mg tablets) is reported as “about 20 hrs”. In data set [2] (oral), the “excreted through the feces” value is 85.2%; the “excreted through urine (tubular secretion)” value is recorded as 5.8%; the recognized side effects result was “dry mouth, constipation, headache urinary retention and dry eyes”.

As to pentosan polysulfate sodium, in data set [3] (oral Elmiron), the side effects entry was “primarily gastrointestinal discomfort, although some patients experienced hair loss”. Besides, the “patients treated whose symptoms improved” value in data set [3] (oral, clinical trials, interstitial cystitis) is listed as 38%.
